Entries after “also recorded” stand apart in the source; their conditions may differ. No end group written: not given here.
Columns and labels:
[1] = system: experimental autoimmune uveitis; experiment: EAU, α-MSH injected i.v. at the time of peak retinal inflammation; assay type: in vivo, mouse
[2] = system: CD25+ CD4+ T cells; experiment: two-color flow cytometry for CD4 and CD25 on activated primed T cells; assay type: cell-based, mouse; details: TCR-stimulated in the presence or absence of α-MSH 30 pg/ml, 24 hours
Method: In another example, for immunostaining and fluorescence-activated cell sorting, T cells (2×10^6 cells) from 24 hour cultures of the α-MSH-treated activated T cells were centrifuged and washed once in PBS/BSA buffer (10 mM PBS, 3% BSA). The cells were resuspended in 50 μl of PBS/BSA buffer containing 2 μg of PE-conjugated anti-CD4 and FITC-conjugated anti-CD25 antibodies and incubated for 30 minutes room temperature. The cells were centrifuged, resuspended in 1 ml of PBS/BSA buffer, and washed two times. The stained cells were sorted by a Coulter ELITE cell sorter calibrated for two color fluorescence. The cells were sorted into two populations, CD25^+ CD4^+ cells and the remaining cells (all CD4^− cells plus CD25^−CD4^+ cells). The sorted cells were used immediately in the in vitro regulatory T cell assay.
α-MSH induced CD25^+ CD4^+ regulatory T cells. To characterize the regulatory T cells induced by α-MSH, we assayed through flow cytometry the possibility that α-MSH induces CD25^+ (IL-2Rα) CD4^+ regulatory T cells. […] The cells were analyzed by two-color flow cytometry after staining with anti-CD4 and anti-CD25. Presented is a representative dot plot of the flow cytometry seen in four separate staining experiments. (B) Only T cells activated in the presence of α-MSH, were stained and sorted based on the coexpression of CD4 and CD25. […]

[3] = system: primed Th1 cells; experiment: in vitro regulatory T cell activity assay (IFN-γ of freshly activated primed Th1 cells in coculture); assay type: cell-based, mouse (BALB/c)
Method: Assay For In Vitro Regulatory T Cell Activity. The α-MSH-treated TCR-stimulated T cells, as described above, were cultured for 48 hours. The plate was spun down at 250×g for 10 minutes and supernatant discarded. Freshly isolated, enriched in vivo primed Th1 cells (4×10^6 cells/ml) mixed with 2C11 (1 μg/ml) were added (200 μl) to the wells of the α-MSH pre-treated, TCR-stimulated T cells and incubated for 48 hours. The culture supernatant was assayed for IFN-γ by sandwich ELISA. For long term cultures, primed T cells were TCR-stimulated in the presence of α-MSH for 48 hours. The plate was centrifuged and supernatant was exchanged for 200 μl of 2C11 (1 μg/ml) in fresh media, no x-MSH. The cultures were incubated for 72 hours and the conditioned media was again exchanged for fresh media and 2C11 antibody. The cultures were incubated for an additional 48 hours, centrifuged, supernatant discarded, and added were fresh in vivo primed Th1 cells and 2C11 antibody. Soluble TGF-β receptor II (sTGF-βRII, R&D Systems) was added to some of the cultures. These cultures were incubated for 48 hours and the culture supernatant was assayed for IFN-γ by sandwich ELISA.
Primed T cells (4×10^5 cells) were enriched and activated with anti-CD3 in the presence (α-MSH+anti-CD3) or absence (+anti-CD3) of α-MSH (30 pg/ml). After 48 hours of incubation the cells were mixed with freshly enriched primed Th1 cells (4×10^5 cells) and anti-CD3 antibody and cultured for 48 hours. The culture supernatant was assayed for IFN-γ by sandwich ELISA. Results are presented as IFN-γ pg/ml±SEM of eight independent experiments.
In addition, T cells initial TCR-stimulated in the presence of α-MSH and subsequently restimulated twice (Day 2 and Day 5) with anti-TCR antibody in the absence of α-MSH, still suppressed IFN-γ production by freshly activated primed Th1 cells (FIG. 6). […] Primed T cells (4×10^5 cells) were enriched and activated with anti-CD3 antibody in the presence of 30 pg/ml α-MSH (α-MSH+anti-CD3) or absence of α-MSH (+anti-CD3). After 48 hours of incubation the cells were centrifuged and resuspended in fresh media with anti-CD3 antibodies and incubated for 72 hours (day 5). The cells were again washed and re-stimulated with anti-CD3 and incubated for an additional 48 hours (day 7). After the final incubation the treated T cells (4×10^5 cells) were mixed with freshly enriched primed Th1 cells (4×10^5 cells) and anti-CD3 antibody and cultured for 48 hours. The culture supernatant was assayed for IFN-γ by sandwich ELISA. Results are presented as IFN-γ pg/ml±SEM of eight independent experiments. […] Therefore, α-MSH mediates induction of functionally active, regulatory Th3 cells.
TGF-β and α-MSH induce regulatory T cell activity. Primed T cells were TCR-stimulated in the presence or absence of 30 pg/ml α-MSH with TGF-β1 or TGF-β2 (5.0 ng/ml) added 4 hours after TCR-stimulation. The treated T cells (Regulatory T cells) were added to cultures of freshly activated primed T cells. Culture supernatants were assayed for IFN-γ 48 hours after addition of treated T cells. Data are presented as percent suppression±SEM of IFN-γ produced by freshly activated T cells with no added regulatory cells, from eight independent experiments.

[4] = system: primed T cells; experiment: proliferation of TCR-stimulated primed T cells (3H-thymidine incorporation); assay type: cell-based, mouse (BALB/c); details: primed T cells + anti-CD3ε 2C11, α-MSH present, 3H-thymidine at 24 h, counted at 48 h

## α-melanocyte stimulating hormone (SYSMEHFRWGKPV; not fully specified; ends and bridges not checked; UniProt P01189 138-150, looked up) [α-MSH, synthetic α-MSH (Peninsula Laboratories); thirteen-amino acid neuropeptide derived from POMC]
[1]
  severity of experimental autoimmune uveitis (EAU): significantly suppressed
[2]
  percentage of CD25+ CD4+ cells: did not change
[3]; α-MSH 30 pg/ml only at first stimulation, restimulated Day 2 and Day 5 without α-MSH, then coculture 48 h
  IFN-γ in cocultures with T cells initially activated in the presence of α-MSH, long term: significantly (p=0.05) suppressed
[3]; α-MSH 30 pg/ml or TGF-β 5.0 ng/ml
  induction of regulatory T cell activity (suppression of IFN-γ of other Th1 cells), factor individually: induced regulatory T cell activity
[4]
  TCR-stimulated T cell proliferation: no affect; also recorded: no effect

Reference: patent publication US20060127400A1, “Activation of regulatory T cells by alpha-melanocyte stimulating hormone” (THE SCHEPENS EYE RESEARCH INSTITUTE, INC., priority 1999, published 2006)
